Key:
[1] = Blood hydroxytyrosol after oral administration with EGCG or EGC (Example 1, HPLC); assay type: in vivo, SD (IGS) male rats; conditions: rats
From the text: The present inventors analyzed the influence of the particular compound having a galloyl group, i.e., EGCG, on the absorption of hydroxytyrosol in the body. At the same time, the inventors also analyzed the influence of EGC, a compound having no galloyl group, on the absorption of hydroxytyrosol in the body. By comparing the results for EGCG with those for the control, we investigated whether the galloyl group is involved in the absorption of hydroxytyrosol in the body.
SD (IGS) male rats (5 weeks old) were purchased from Oriental Bioservice, Inc. and habituated to the test environment for one week, and then those rats which were well grown were put to use in the selected test. Those rats fasted overnight were divided into three groups each consisting of 4 or 5 animals. Group 1 (control) was given 5 mL/kg of distilled water and 50 mg/5 mL/kg of a commercial hydroxytyrosol solution in distilled water; Group 2 was given 100 mg/5 mL/kg of an EGC solution in distilled water and 50 mg/5 mL/kg of a hydroxytyrosol solution in distilled water; and Group 3 was given 150 mg/5 mL/kg of an EGCG solution in distilled water and 50 mg/5 mL/kg of a hydroxytyrosol solution in distilled water—all of the groups were orally administered using a sonde. Before and at 0.25, 0.5, 1, 3 and 6 hours after the start of treatment, blood was sampled from the tail vein using a heparin-coated blood collection tube and centrifuged (at 8000 rpm for 10 min) to obtain plasma samples. The obtained plasma samples were subjected to deconjugation and deproteinization treatments, and the resulting supernatants were concentrated under reduced pressure, redissolved in 20% acetonitrile, and passed through a filter. The resulting solutions were analyzed by HPLC to determine their peak areas. Thus, quantification of hydroxytyrosol was performed. The EGCG used in this example was a commercially available EGCG product (EGCG purity: 94%). The HPLC conditions are shown below.
Column: X-bridge C18 (3.5 μm, 2.1×150 mm, produced by Waters)
Mobile phase: A: 0.1% acetic acid solution in water, B: 0.1% acetic acid/90% acetonitrile solution in water

[2] = Blood hydroxytyrosol after oral administration with reduced doses of grape seed extract (Example 3); assay type: in vivo; conditions: male, SD (IGS), rat, rats, hydroxytyrosol 30 mg/kg alone (control), plasma, read-out: AUC of hydroxytyrosol at 0 to 6 hours
From the text: The present inventors investigated whether the same promoting effect on the absorption of hydroxytyrosol in the body as observed in Example 2 can be observed even if the dose of the grape seed extract is reduced.
SD (IGS) male rats (9.5 weeks old) were purchased from Oriental Bioservice, Inc. and habituated to the test environment for two weeks, and then those rats which were well grown were put to use in the selected test. Those rats fasted overnight were divided into three groups each consisting of 4 animals. Group 1 (control) was given 30 mg/5 mL/kg of a hydroxytyrosol solution in distilled water; Group 2 was given 30 mg/kg of hydroxytyrosol plus 5 mL/kg of a solution of 150 mg/kg grape seed extract in distilled water; and Group 3 was given 30 mg/kg of hydroxytyrosol plus 5 mL/kg of a solution of 250 mg/kg grape seed extract in distilled water—all of the groups were orally administered using a sonde. Before and at 0.25, 0.5, 1, 2, 3 and 6 hours after the start of treatment, blood was sampled from the tail vein using a heparin-coated blood collection tube and centrifuged (at 8000 rpm for 10 min) to obtain plasma samples. […] The resulting solutions were analyzed by LC/MS/MS, and quantification of hydroxytyrosol was performed using the internal standard method. […]

[3] = Blood hydroxytyrosol after oral administration with 500 mg/kg grape seed extract (Example 2, LC/MS/MS); assay type: in vivo, SD (IGS) male rats; conditions: rats, hydroxytyrosol 30 mg/kg alone
Procedure: The present inventors investigated the influence of an OPC on the absorption of hydroxytyrosol in the body.
SD (IGS) male rats (9 weeks old) were purchased from Oriental Bioservice, Inc. and habituated to the test environment for one week, and then those rats which were well grown were put to use in the selected test. Those rats fasted overnight were divided into two groups each consisting of 5 or 6 animals. Group 1 (control) was given 30 mg/5 mL/kg of a hydroxytyrosol solution in distilled water; and Group 2 was given 30 mg/kg of hydroxytyrosol plus 5 mL/kg of a solution of 500 mg/kg grape seed extract in distilled water—both of the groups were orally administered using a sonde. Before and at 0.25, 0.5, 1, 2, 3 and 6 hours after the start of treatment, blood was sampled from the tail vein using a heparin-coated blood collection tube and centrifuged (at 8000 rpm for 10 min) to obtain plasma samples. The obtained plasma samples were subjected to deconjugation and deproteinization treatments, and the resulting supernatants were concentrated under reduced pressure, redissolved in 20% acetonitrile, and passed through a filter. The resulting solutions were analyzed by LC/MS/MS, and quantification of hydroxytyrosol was performed using the internal standard method. HPLC conditions
Internal standard (I.S.): 3-(4-hydroxyphenyl)-1-propanol […]

[4] = Blood hydroxytyrosol after oral administration with 150 to 750 mg/kg grape seed extract (Example 4); assay type: in vivo; conditions: male, SD (IGS), rat, rats, hydroxytyrosol 30 mg/kg alone (control), plasma, read-out: AUC of hydroxytyrosol at 0 to 6 hours
Procedure: The present inventors investigated whether the same promoting effect on the absorption of hydroxytyrosol in the body can be observed even if the dose of the grape seed extract is further increased in the same test system as used for the investigations in Examples 2 and 3. […] The method for calculating this purity will be presented later in Example 5. Also, the amount of a galloyl group contained in the grape seed extract was measured as the amount of a galloyl ester and determined to be about 2.2% by weight. The method for calculating this amount will be presented later in Example 6.
SD (IGS) male rats (8 weeks old) were purchased from Oriental Bioservice, Inc. and habituated to the test environment for one week, and then those rats which were well grown were put to use in the selected test. Those rats fasted overnight were divided into five groups each consisting of 4 animals (however, Group 5 consists of 2 animals). […]
The obtained plasma samples were subjected to deconjugation and deproteinization treatments, and the resulting supernatants were concentrated under reduced pressure, redissolved in 20% acetonitrile, and passed through a filter. The resulting solutions were analyzed by LC/MS/MS, and quantification of hydroxytyrosol was performed using the internal standard method. […]

[5] = hydroxytyrosol 50 mg/kg concurrently with EGCG 150 mg/kg

blood hydroxytyrosol concentration after its peak (absorption profile) [1, 5] | time at which blood hydroxytyrosol concentration reached its peak [1, 5] [min] | AUC [2] [ng·h/mL] | blood hydroxytyrosol at 2 or 3 hours after administration [3] | AUC ([1]; male, SD (IGS), rat, hydroxytyrosol 50 mg/kg alone (control), plasma, read-out: AUC of hydroxytyrosol (amount absorbed in the body)) [ng·h/mL] | time at which blood hydroxytyrosol concentration reached its peak ([1]; hydroxytyrosol 50 mg/kg alone) [min] | AUC [4] [ng·h/mL] | Compound
kept high even thereafter | 30 | – | – | – | – | – | O=C(O[C@@H]1Cc2c(O)cc(O)cc2O[C@@H]1c1cc(O)c(O)c(O)c1)c1cc(O)c(O)c(O)c1 [EGCG, epigallocatechin gallate]
– | – | 8640 | little or no hydroxytyrosol was detected | 12000 | 18 | 7360 | OCCc1ccc(O)c(O)c1 [hydroxytyrosol, 3,4-dihydroxyphenylethanol]

From patent publication US20160184434A1, “AGENT FOR PROMOTING IN VIVO ABSORPTION OF HYDROXYTYROSOL AND DERIVATIVES THEREOF AND USE OF SAME” (priority 2013, published 2016)
